How the values were obtained:
[1] = system: p53-null mouse sarcoma cells; assay: Murine Mdm2+/+ p53-null sarcoma cells, Western blot and MTT; type: cell-based
[2] = system: MDA-MB-231 mammospheres; assay: Area of formed mammospheres, MDA-MB-231; type: cell-based, human; settings: MDA-MB-231, 3-fold lower concentration than the MDM2 inhibitors, 72 hr
Description: (§1) FIGS. 21A-21E show the apoptosis induction of p53-inactivated TNBC cells in 2D and 3D cultures by the MDM2-PROTAC YX-02-030. A-B. Colony formation assays (A. Triplicate, 12 days) and mammosphere formation (B. Triplicate 72 hrs) of MDA-MB-231 and MDA-MB-436 cells in the presence of the indicated compounds or DMSO control (−); representative pictures shown. C-E. Formed mammospheres of MDA-MB-231 and MDA-MB-436 cells were treated with the compounds indicated or DMSO control (−), and area (C. n=10 mammospheres, relative to pre-treatment area, 72 hr), real-time imaging (IncuCyte) and quantification of Caspase-3/7 activity (D. n=4-5 wells/compound), and survival/ATP assays (E. Quadruplicate, 72 hr) were performed; representative images shown; scale bar 300 m. Mean±SEM (A-C and E). For A, *P<0.0001 and **P<0.0001, comparing 1 M and 2 M PROTAC, respectively, to control compounds and DMSO vehicle control. For B, *P<0.0046, **P<0.0001, and ***P<0.0001, comparing 0.5 M, 1 M, and 2 M PROTAC, respectively, to control compounds and DMSO vehicle control. For C, *P<0.0001 and **P<0.0001, comparing 2 M and 4 M/6 M PROTAC, respectively, to control compounds and DMSO vehicle control. […]
(§2) These were then evaluated in 3D culture as to when the YX-02-030 was effective at preventing TNBC cell mammosphere formation and eliminating already formed mammospheres. […]

[3] = system: MDA-MB-436 mammospheres; assay: Area of formed mammospheres, MDA-MB-436; type: cell-based, human; settings: MDA-MB-436, 3-fold lower concentration than the MDM2 inhibitors, 72 hr
Description: as §1, §2

[4] = In vivo toxicity, C57Bl/6 mice; set-up: species or system mouse
Description: FIGS. 24A-24E show no overt toxicities from the MDM2-PROTAC YX-02-030 observed in vivo. A-B. A. After C57Bl/6 immunocompetent mice received 15 consecutive intraperitoneal (IP) injections of MDM2-PROTAC (50 mg/kg) or vehicle control treatments, complete blood counts were determined. B. H&E sections of formalin-fixed paraffin-embedded tissues evaluated (B, BM-bone marrow). C-E, Nude mice with subcutaneous tumors of MDA-MB-231 and MDA-MB-436 TNBC cells were administered (IP) MDM2-PROTAC YX-02-030, RG7112D, or vehicle control (50 mg/kg) for 14 consecutive days. C. Mouse weight was measured daily throughout the course of treatment. D. Complete blood counts were determined following 13 consecutive treatments. E. Sections of formalin-fixed paraffin-embedded tissues from mice at time of sacrifice were H&E stained and evaluated. Representative images are shown and scale bars are 200 m (spleen) and 300 μm (bone marrow and intestine). Mean±SD (A, C, D).
Prior to testing YX-02-030 tumors in vivo, mouse liver microsome and pharmacokinetic (PK) studies were performed to determine its stability in vivo. […] Due to its stability in vivo, the effectiveness of YX-02-030 was then evaluated at killing TNBC tumors in mice. […] The toxicity of YX-2-228 was analyzed as compared to both the vehicle and YX-2-30. […]

[5] = system: TNBC patient-derived explants; assay: Patient-derived TNBC explants; type: cell-based, human
Description: FIGS. 27A-27E show TP53 mutant TNBC patient-derived explants undergo apoptosis following treatment with the MDM2-PROTAC YX-02-030. A. TP53 sequenced in five fresh TNBC patient samples and used in explant and 3D mammosphere cultures. B-C. TNBC patient-derived explants were treated with the compounds indicated and Western blotting (B) and immunohistochemistry (IHC) of FFPE sections for cleaved Caspase-3 (C, n=3 paired patient samples) were performed. Representative images of H&E and cleaved Caspase-3 (CC3) IHC shown, including normal breast epithelium treated with MDM2-PROTAC YX-02-030; scale bar 300 m. D-E. Mammosphere cultures were established from TNBC patient samples, treated with the indicated compounds, and live-cell detection of Caspase-3/7 activity (D, quadruplicate) and mammosphere survival/ATP production (E, quadruplicate) were measured.
To assess the effects of YX-02-030 on TNBC patient samples, fresh, surgically-resected tumor from five TNBC patients was obtained, and 80% were from Black/African American patients (FIG. 26). Each tumor had TP53 missense mutations with two having the same hot-spot (R248Q) p53 mutation and one that had 3 TP53 mutations (FIG. 27A). […]

[6] = system: SCC-25; assay: Cell death of other cancer cell lines: SCC-25; type: cell-based; settings: Homo sapiens; SCC-25, Head & Neck
Description: (§3) The PROTACs prepared herein were tested for their use in other cancer cell lines to determine activity in multiple different types of cancer.

[7] = system: DE1069; assay: Cell death of other cancer cell lines: DE1069; type: cell-based; settings: DE1069, Sarcoma, Mouse
Description: as §3

CCOc1cc(C(C)(C)C)ccc1C1=N[C@](C)(c2ccc(Cl)cc2)[C@](C)(c2ccc(Cl)cc2)N1C(=O)N1CCN(CC(=O)NCCOCCOCCOCC(=O)N[C@H](C(=O)N2C[C@H](O)C[C@H]2C(=O)NCc2ccc(-c3scnc3C)cc2)C(C)(C)C)CC1 (racemic) [YX-02-030]
p73 and apoptosis (cleaved caspase 3) ([1]; Western blots after 24 hrs): stabilized p73 and induced apoptosis | killing of p53-null sarcoma cells ([1]; increasing concentrations, MTT assay, 48 hrs): killed p53-null sarcoma cells | reduction of mammosphere area [2]: 49.5% | reduction of mammosphere area [3]: 43.8% | overt toxicity ([4]; C57Bl/6 mice and immune-deficient mice of the xenograft experiments, 50 mg/kg IP): no signs of overt toxicity | tolerability ([4]; C57Bl/6 mice, 30 mg/kg IP, 2× daily): well tolerated | apoptosis markers by Western blot ([5]; explants): increased levels of cleaved Caspase-3 and cleaved PARP | MDM2 protein in patient tumors ([5]; within 4 days of treatment): MDM2 protein was lost | IC50 [6]: 3.1 µM | IC50 [7]: 6.1 µM

Source: patent US20260053931A1, “MDM2 TARGETING PROTACS” (THE WISTAR INSTITUTE OF ANATOMY AND BIOLOGY, priority 2023, published 2026)
